From US10011602B2, “Immunological reagents and uses therefor” (THE UNIVERSITY OF MELBOURNE, priority 2012, dated 2018)
Where a chain is given by its changes, count along the chain named.

B1: mouse MR1 refolded with 6-FP: tetramers from mouse MR1 (BirA peptide-tagged) refolded with 6-FP (protein, UniProt Q8HWB0 19-341, looked up)
Major histocompatibility …: RTHSLRYFRLAVSDPGPVVPEFISVGYVDSHPITTYDSVTRQKEPKAPWMAENLAPDHWERYTQLLRGWQQTFKAELRHLQRHYNHSGLHTYQRMIGCELLEDGSTTGFLQYAYDGQDFIIFNKDTLSWLAMDYVAHITKQAWEANLHELQYQKNWLEEECIAWLKRFLEYGRDTLERTEHPVVRTTRKETFPGITTFFCRAHGFYPPEISMTWMKNGEEIAQEVDYGGVLPSGDGTYQTWLSVNLDPQSNDVYSCHVEHCGRQMVLEAPRESGDILRVSTISGTTILIIALAGVGVLIWRRSQELKEVMYQPTQVNEGSSPS
modifications: BirA tag, tetramer, 6-FP ligand
B2: rRL-6-CH2OH-loaded mouse Lys43Ala-MR1: tetramers of mouse Lys43Ala-MR1 loaded with rRL-6-CH2OH (protein, UniProt Q8HWB0 19-341, looked up, variant K43A)
Major histocompatibility …: B1 Major histocompatibility … with K43A
modifications: tetramer loaded with rRL-6-CH2OH
notes: tetramers of mouse Lys43Ala-MR1 loaded with rRL-6-CH2OH

Legend:
MR1 = target: T1, MR1 (Homo sapiens, UniProt Q95460); assay: Refolding of denatured MR1 and β2m with ligands; format: binding; settings: substance added to MR1/β2m refold
T1 construct: soluble human MR1 (residues 1-270 of the mature, leaderless protein); made in house
T1 sequence (Q95460 23-292): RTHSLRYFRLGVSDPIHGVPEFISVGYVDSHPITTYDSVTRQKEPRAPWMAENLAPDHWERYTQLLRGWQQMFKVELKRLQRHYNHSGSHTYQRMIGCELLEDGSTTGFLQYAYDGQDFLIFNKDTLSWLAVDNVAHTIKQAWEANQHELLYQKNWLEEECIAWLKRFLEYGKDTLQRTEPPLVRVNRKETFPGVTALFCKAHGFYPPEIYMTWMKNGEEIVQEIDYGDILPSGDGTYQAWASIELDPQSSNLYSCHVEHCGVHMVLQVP
T1 sequence (P61769 21-119 partner): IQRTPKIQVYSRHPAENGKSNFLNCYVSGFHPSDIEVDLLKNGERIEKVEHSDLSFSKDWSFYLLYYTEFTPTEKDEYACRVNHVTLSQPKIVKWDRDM
Experimental: Genes encoding soluble human MR1 (residues 1-270 of the mature, leaderless protein, lacking the transmembrane and cytoplasmic domains); or human β2m (mature, leaderless protein) were expressed for four hours in BL21 E. coli following induction with 1 mM isopropyl β-D-1-thiogalactopyranoside. E. coli were pelleted and resuspended in a buffer containing 50 mM Tris, 25% (w/v) sucrose, 1 mM EDTA, 10 mM DTT pH 8.0. Inclusion body protein was then extracted by lysis of bacteria in a buffer containing 50 mM Tris pH 8.0, 1% (w/v) Triton X-100, 1% (w/v) sodium deoxycholate, 100 mM NaCl, 10 mM DTT, 5 mM MgCl2, and 1 mg DnaseI per liter of starting culture; and subsequent steps involved homogenization with a polytron homogenizer, centrifugation, and washing inclusion body protein sequentially with firstly a buffer containing 50 mM Tris pH 8, […], 100 mM NaCl, 1 mM EDTA, 1 mM DTT, and secondly a buffer containing 50 mM Tris pH 8.0, 1 mM EDTA, 1 mM DTT. Inclusion body protein was then resuspended in a buffer containing 20 mM Tris pH 8.0, 8 M urea, 0.5 mM EDTA, 1 mM DTT, and following centrifugation the supernatant containing solubilized, denatured inclusion body protein was collected and stored at −80° C.
2 mg of 6-formyl pterin, 56 mg of denatured inclusion body MR1 protein, and 28 mg of β2m protein were added to a 400 ml refold buffer solution containing 0.1 M Tris pH 8.5, 2 mM EDTA, 0.4 M arginine, 0.5 mM oxidized glutathione, 5 mM reduced glutathione. Variably, 5M urea was either present or absent. Following an overnight incubation at 4° C., the refold buffer was dialysed against 3 changes of buffer containing 10 mM Tris, pH8.0 over a period of 24 hours. Refolded MR1-β2m-ligand complex was then purified by sequential DEAE (GE Healthcare) anion exchange, S75 16/60 (GE Healthcare) gel filtration, and MonoQ (GE Healthcare) anion exchange chromatography.

Jurkat.LC13 line = assay: Activation of control Jurkat.LC13 line in the presence of C1R.HLA-B8 cells; format: cell-based, human
Source text: Next, to formally establish whether 7-hydroxy-6-methyl-8-ribityl lumazine and/or its precursor, 6,7-dimethyl-8-ribityl lumazine, could activate MAIT cells, both compounds were chemically synthesized their ability to enable MR1 refolding and to activate Jurkat.MAIT cells and human MAIT cells from peripheral blood tested. […] Thus, direct precursors of riboflavin biosynthesis activate MAIT cells.

Jurkat.MAIT cells = assay: Activation of Jurkat.MAIT cells (CD69) with C1R antigen presenting cells expressing MR1; format: cell-based, human
Experimental: Jurkat cells transduced with a MAIT TCR comprising the TRAV1-2+TRAJ33 invariant α chain, and a TRBV6-1 β chain were tested for activation by addition of Salmonella supernatant to C1R antigen presenting cells expressing MR1 for 16 hours. Jurkat.MAIT cells were subsequently stained with PE-conjugated anti-CD3, and APC-conjugated anti-CD69 antibodies before analysis by flow cytometry. Activation of Jurkat.MAIT cells was measured by an increase in surface CD69 expression. Compounds to be tested for the ability to activate Jurkat.MAIT cells were tested alongside Salmonella supernatant.
A biological assay for the activation of MAIT T cell receptor (TCR)-expressing T cell lines (into which genes encoding the MAIT TCR alpha and beta chains had been introduced), by antigen presenting cells (expressing MR1 on the cell surface) infected with the bacterium Salmonella typhimurium has been established. This assay measures the increase in expression of the cell surface activation marker, CD69, upon activation of MAIT T cells.

[1] = test system: human MAIT cells from peripheral blood; assay: Activation of primary MAIT cells from PBMCs (CD69, IFN-γ, TNF-α); format: cell-based; settings: PBMCs with C1R cells expressing MR1
Experimental: PBMCs from a healthy donor were mixed with C1R-huMR1 cells (10^5 each/well). Salmonella SL1344 supernatant (2 μl) from cultures grown in LB supplemented with 25 μg/ml streptomycin (Sigma) for 4 hr at 37° C., or compounds (35A, 36A, 48G: 25 μg/ml final, A-6FP: 10 μM final) or PMA (2 ng/ml+ionomycin (1 ng/ml) added in a total volume of 220 μl RF-10, and incubated overnight at 37° C. Cells were stained with anti-CD3-PE-Cy7 (eBioscience, 20 μg/ml), anti-CD4-APC-Cy7 (Biolegend, 1.7 μg/ml), anti-CD161-APC (Miltenyi Biotec, 1:50), FITC-conjugated D5 (anti-MAIT TCR, 10 μg/ml) and either anti-CD69-PE (BD Biosciences 1:50), anti-IFNγ-PE (BD Pharmingen 10 μg/ml) or anti-TNFα-PE (BD Pharmingen 10 μg/ml), and analyzed by flow cytometry using a Canto II cytometer and Diva software. For intracellular cytokine staining, brefeldin A (10 μg/ml) was added to the assay after the first 1 hr and the incubation allowed to proceed overnight. Cells were fixed with 1% parformaldehyde after staining for surface markers and permeabilised with 1% saponin during cytokine stains. MAIT cells were defined as CD3^+, CD4^−, CD161^+, D5^+ after gating on PBMCs using FSC and SSC.
PBMCs from a healthy donor were mixed with C1R cells expressing MR1 (10^5 each/well). Salmonella SL1344 supernatant (2 μl) from cultures grown in LB supplemented with 25 μg/ml streptomycin (Sigma) for 4 hr at 37° C., or compounds (RL-6,7-diMe, RL-6-Me-7-OH, 6FP: 76.2 μM final, rRL-6-HM: 0.152 μM final) or PMA (2 ng/ml+ionomycin (1 ng/ml) added in a total volume of 220 μl RF-10, and incubated overnight at 37° C. Cells were stained with anti-CD3-PE-Cy7 (eBioscience, 20 μg/ml), anti-CD4-APC-Cy7 (Biolegend, 1.7 μg/ml), anti-CD161-APC (Miltenyi Biotec, 1:50), FITC-conjugated D5 (anti-MAIT TCR, 10 μg/ml) and either anti-CD69-PE (BD Biosciences 1:50), anti-IFNγ-PE (BD Pharmingen 10 μg/ml) or anti-TNFα-PE (BD Pharmingen 10 μg/ml), and analyzed by flow cytometry using a Canto II cytometer and Diva software. […] CD69 expression was analysed by flow cytometry. […]

[2] = test system: Jurkat cells expressing a conventional T cell receptor; assay: Control: inhibition of activation of Jurkat cells expressing a conventional T cell receptor by viral peptide-classical class I complexes; format: cell-based, human; settings: antigen presenting cells displaying viral peptide-classical class I complexes
Source text: Thus, 6-formyl pterin has been identified as a potential antagonist compound, capable of blocking activation of MAIT cells by bacterial activating ligands.

MAIT cells = assay: Re-presentation assay: refolded soluble MR1 added to antigen presenting cells expressing MR1 and MAIT cells; format: cell-based; settings: MR1 refolded with the named substance
human PBMC MAIT cells = assay: MR1 tetramer staining of human PBMCs (flow cytometry); format: cell-based; settings: PE-streptavidin tetramers; D5, CD161 co-staining
Experimental: Biotinylated MR1 (produced in either of the 2 methods mentioned above) is used to make tetramers by the addition of biotinylated MR1 to PE Streptavidin (#554061, BD Pharmingen) in a 4:1 molar ratio. PE Streptavidin is added sequentially in 1/10 aliquots to biotinylated MR1 at 10 minute intervals to ensure efficient tetramization.
Human MAIT cells are identified as being D5-positive (D5 mAb stains Vα7.2,-positive T cells; Vα7.2 is the invariant Vα-chain utilized by human MAIT cells) and CD161-positive. Human PBMCs were stained with CD3-PE-Cy7, CD8-PerCP, CD4-APC-Cy7, CD161-APC specific mAbs; as well as the anti-Vα7.2-FITC mAb D5 (generated in-house; human MAIT cells utilize the Vα7.2 alpha chain) and PE-labeled tetramers of mouse MR1-β2m-acetyl-6-Formyl Pterin (mouse MR1 had been refolded with either 6-formyl pterin or acetyl-6-formyl pterin).

Row | Molecule | Ability to refold MR1 into native MR1-β2m complex (MR1) | Activation of Jurkat.MAIT cells (increase in surface CD69) (Jurkat.MAIT cells) | Tetramer staining of human PBMC MAIT cells (human PBMC MAIT cells) | also measured
1 | Cc1nc2nc(N)[nH]c(=O)c2nc1C [6-7-dimethylpterin] | inability | – | – | –
2 | Cc1nc2c(=O)[nH]c(=O)nc-2n(C[C@H](O)[C@H](O)[C@H](O)CO)c1O [Compound 2, 7-hydroxy-6-methyl-8-D-ribityllumazine] | could be refolded with MR1 | activated | – | Activation of control Jurkat.LC13 line (Jurkat.LC13 line): failed to activate; Activation of MAIT cells (CD69 upregulation, intracellular IFN-γ and TNF-α) [1]: specifically activated
3 | Nc1nc2ncc(C=O)nc2c(=O)[nH]1 [Compound 6-FP, 6-formyl pterin, reference compound] | indistinguishable from MR1 refolded with folic acid | did not activate | – | Inhibitory effect on activation of Jurkat cells expressing a conventional T cell receptor [2]: no inhibitory effect; Activation of MAIT cells (CD69 upregulation, intracellular IFN-γ and TNF-α) [1]: did not activate
4 | Nc1nc2ncc(CNc3ccc(C(=O)N[C@@H](CCC(=O)O)C(=O)O)cc3)nc2c(=O)[nH]1 [Folic acid] | yielded significant amounts of native MR1 | – | – | Activation of MAIT cells by MR1 refolded with the substance (re-presentation assay) (MAIT cells): failed to activate; Activation of MAIT cells by MR1 refolded with the substance (re-presentation assay) (MAIT cells; listed as folic acid): non-stimulatory
5 | Nc1nc2nccnc2c(=O)[nH]1 [pterin] | inability | – | – | –
6 | Cc1cc2nc3c(=O)[nH]c(=O)nc-3n(C[C@H](O)[C@H](O)[C@H](O)CO)c2cc1C [riboflavin, reference compound] | did not form MR1-β2m complexes | did not | – | –
7 | human Leucine151Alanine MR1 refolded with acetyl-6-FP: tetramers from human Leucine151Alanine MR1 (BirA peptide-tagged) refolded with acetyl-6-FP | – | – | stain a proportion | –
8 | human wild-type MR1 refolded with 6-FP: control tetramers from human wild-type MR1 refolded with 6-FP | – | – | fail to stain | –
9 | B1 | – | – | can stain a proportion | –
10 | B2 | – | – | identify a CD161-positive, D5-positive population | –
